Laboratory results reported in the supplement of paper PMC10307832.

What was measured:
Experiment in all cases: relative viability (nuclei count vs DMSO), 5 days (fraction); higher = more cells survive
[1] = compound: OCc1c[nH]c2ccccc12 [Indole-3-carbinol] + CC(=O)Nc1cccc(-n2c(=O)n(C3CC3)c(=O)c3c(Nc4ccc(I)cc4F)n(C)c(=O)c(C)c32)c1 [Trametinib] (partner 0.02 µM)
Procedure, shortened: (§1)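 Values are medians from duplicate plates. Each reflects relative viability, defined as the nuclei count of treated wells over that of vehicle wells. Lung cancer cell lines in 1536-well plates were pin-tool dosed one day after seeding with one drug alone or with a fixed anchor-drug dose plus five library-drug doses (not always all listed) in √10 steps, then fixed, stained and imaged at 4× after 5 days.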

[2] = compound: OCc1c[nH]c2ccccc12 [Indole-3-carbinol] + CC1(C)CCC(c2ccc(Cl)cc2)=C(CN2CCN(c3ccc(C(=O)NS(=O)(=O)c4ccc(N[C@H](CCN5CCOCC5)CSc5ccccc5)c(S(=O)(=O)C(F)(F)F)c4)cc3)CC2)C1 [Navitoclax] (partner 0.5 µM)
Procedure, shortened: as §1

[3] = compound: OCc1c[nH]c2ccccc12 [Indole-3-carbinol] + COc1cccc2cc(-c3nc([C@H]4CC[C@H](C(=O)O)CC4)n4ncnc(N)c34)[nH]c12 [OSI-027] (partner 0.5 µM)
Procedure, shortened: as §1

[4] = compound: OCc1c[nH]c2ccccc12 [Indole-3-carbinol] + Cc1cc(Nc2cc(N3CCN(C)CC3)nc(Sc3ccc(NC(=O)C4CC4)cc3)n2)n[nH]1 [Tozasertib] (partner 0.1 µM)
Procedure, shortened: as §1

[5] = compound: OCc1c[nH]c2ccccc12 [Indole-3-carbinol] + O=C(c1cc(Cc2n[nH]c(=O)c3ccccc23)ccc1F)N1CCN(C(=O)C2CC2)CC1 [Olaparib] (partner 8 µM)
Procedure, shortened: as §1

Cell Line	relative viability ([1]; first compound 0.253 µM)	relative viability ([1]; first compound 0.8 µM)	relative viability ([1]; first compound 2.53 µM)	relative viability ([1]; first compound 8 µM)	relative viability ([2]; first compound 0.253 µM)	relative viability ([2]; first compound 0.8 µM)	relative viability ([2]; first compound 2.53 µM)	relative viability ([2]; first compound 8 µM)	relative viability ([3]; first compound 0.253 µM)	relative viability ([3]; first compound 0.8 µM)	relative viability ([3]; first compound 2.53 µM)	relative viability ([3]; first compound 8 µM)	relative viability ([4]; first compound 0.253 µM)	relative viability ([4]; first compound 0.8 µM)	relative viability ([4]; first compound 2.53 µM)	relative viability ([4]; first compound 8 µM)	relative viability ([5]; first compound 0.253 µM)	relative viability ([5]; first compound 0.8 µM)	relative viability ([5]; first compound 2.53 µM)	relative viability ([5]; first compound 8 µM)
NCI-H23	0.315	0.319	0.43	0.414	0.853	0.843	0.856	0.762	0.589	0.732	0.566	0.55	0.351	0.359	0.345	0.377	0.316	0.353	0.3	0.276
NCI-H322M	0.517	0.411	0.496	0.451	1.37	1.26	1.14	1.18	0.521	0.504	0.521	0.527	0.476	0.465	0.458	0.472	0.779	0.692	0.773	0.725
NCI-H441	0.59	0.547	0.469	0.475	0.809	0.568	0.579	0.688	0.555	0.73	0.604	0.622	0.551	0.782	0.702	0.595	0.61	0.685	0.572	0.496
NCI-H460	0.119	0.151	0.11	0.129	1.2	1.46	1.08	1	0.594	0.621	0.632	0.6	0.426	0.385	0.532	0.443	0.38	0.377	0.455	0.375
NCI-H520	0.702	0.575	0.741	0.772	1.12	0.999	1.14	1.12	0.25	0.189	0.258	0.274	0.445	0.46	0.417	0.457	0.336	0.341	0.383	0.265
NCI-H596	0.779	0.829	0.809	0.762	0.977	1.02	0.921	0.826	0.759	0.761	0.726	0.866	0.803	1.04	0.784	0.896	0.602	0.738	0.451	0.653
NCI-H647	0.562	0.405	0.508	0.524	1.16		1.09	1.01	0.595		0.826	0.497	0.147		0.368	0.398	0.578	0.735	0.693	0.409
NCI-H727	0.372	0.393	0.412	0.392	0.359	0.355	0.364	0.497	0.544	0.517	0.548	0.771	0.512	0.73	0.599	0.554	0.616	0.694	0.657	0.634
NCI-H838	0.593	0.499	0.525	0.495	1.18	1.14	1.18	1.08	0.344	0.311	0.416	0.386	0.265	0.308	0.301	0.286	0.856	0.85	0.75	0.704
NCI-H1355	0.43	0.343	0.386	0.415	0.967	0.919	0.858	0.896	0.403	0.44	0.363	0.396	0.525	0.619	0.551	0.564	0.782	0.77	0.772	0.699
NCI-H1395	1	1.01	1.08	0.995	1.23	1.16	1.19	1.08	0.738	0.606	0.637	0.613	0.705	0.77	0.734	0.758	0.42	0.478	0.48	0.413
NCI-H1437	0.549	0.558	0.459	0.458	1.15	1.14	1.18	1.03	0.917	0.849	0.895	0.852	0.412	0.439	0.421	0.424	0.65	0.675	0.639	0.619
NCI-H1650	0.565	0.563	0.561	0.498	1.32	1.16	1.26	1.1	0.597		0.601	0.647	0.371		0.364	0.473	0.736	0.889	0.92	0.768
NCI-H1651	0.819	0.787	0.823	0.822	1.03	1.07	1.05	0.925	0.626	0.643	0.84	0.648	0.723	0.922	0.834	0.614	0.195	0.203	0.161	0.175
NCI-H1666	0.828	0.85	0.939	0.788	0.896	1.05	0.973	0.893	0.7	0.878	0.874	0.876	0.556	0.638	0.526	0.657	0.803	0.731	0.766	0.728
NCI-H1734	0.676	0.762	0.617	0.651	0.899	0.876	0.801	0.727	0.506	0.631	0.634	0.582	0.276	0.263	0.259	0.27	0.61	0.619	0.613	0.58
